These results are taken from US20250388605A1, “HETEROBIFUNCTIONAL COMPOUNDS AND METHODS OF TREATING DISEASE” (Halda Therapeutics OpCo, Inc., priority 2022, published 2025).

pKd: −log10 of the molar value.

The test system of test [1] is T-Rex 293 cell line SC3 cells having increased expression of androgen receptor protein due to exposure to doxycycline. As to the kind of experiment: Cellular growth inhibition, T-Rex 293 SC3 cells with doxycycline (increased androgen receptor expression), CellTiter-Glo. In kind it is cell-based. The note with it: T-Rex 293 SC3 cells with 10 ng/mL doxycycline (increased androgen receptor expression), 72 hours, CellTiter-Glo 2.0. Put shortly:
(§1)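 Growth inhibition is measured in an inducible AR-expressing T-Rex 293 clone, SC3, cultured with or without 10 ng/mL doxycycline in hormone-depleted medium. Test compounds are applied for 72 hours. GI50 values derive from CellTiter-Glo 2.0 signal fitted by four-parameter regression.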

The target in another test is T1, BRD4-BD2 (Homo sapiens, UniProt O60885).
T1 construct: made in house; host or cells: T7 phage grown in an E. coli host derived from the BL21 strain
As to the kind of experiment: Binding affinity to BRD4-BD2 (bromoKdELECT assay). The following applies: 11-point 3-fold dilution series.

In the next test the test system is VCaP cells. In words: Cellular growth inhibition assay for VCaP cells, CellTiter-Glo. Format: cell-based, human. The note with it: 72 hours. Put shortly:
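GI50 values come from four-parameter curve fits of luminescence data normalized to a zero baseline. Compound, in medium with 0.5% DMSO, was added one day after plating and left for 72 h before CellTiter-Glo 2.0 addition.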
Background: Cellular ATP, detected with luciferase, serves as a proxy for viable cell number.

In test [2] the test system is T-Rex 293 cell line SC3 cells lacking increased expression of androgen receptor protein. As to the kind of experiment: Cellular growth inhibition, T-Rex 293 SC3 cells without doxycycline (no increased androgen receptor expression), CellTiter-Glo. The following applies: T-Rex 293 SC3 cells not exposed to doxycycline (no increased androgen receptor expression), 72 hours. In kind it is cell-based. The gist of the method: as §1

Regarding `Cn1cc(-c2cc(C(C)(C)O)ccc2Oc2ccc(CCC3CCN(c4ncc(C(=O)N[C@H]5C(C)(C)[C@H](Oc6ccc(C#N)c(Cl)c6)C5(C)C)cn4)CC3)cc2)c2cc[nH]c2c1=O` [Compound I-203], the 50% growth inhibitory concentration (GI50) (usually the concentration that inhibits growth by half) in test [1] was less than 500 nM; with VCaP cells (Homo sapiens) it was 1500 to 3000 nM; in test [2], more than 3000 nM. Further, the pKd (in general, −log10 of the Kd, conventionally taken in molar units) at BRD4-BD2 was less than 5.60.
Regarding `Cn1cc(-c2cc(C(C)(C)O)ccc2Oc2cccc(CCOC3CCN(c4ncc(C(=O)N[C@H]5C(C)(C)[C@H](Oc6ccc(C#N)c(Cl)c6)C5(C)C)cn4)CC3)c2F)c2cc[nH]c2c1=O` [Compound I-147], the GI50 (in test [1]; with VCaP cells; in test [2]) was less than 500 nM throughout. This compound also gave a pKd at BRD4-BD2 of more than 7.30.
In the case of `Cn1cc(-c2cc(C(C)(C)O)ccc2Oc2cccc(OCCOC3CCN(c4ncc(C(=O)N[C@H]5C(C)(C)[C@H](Oc6ccc(C#N)c(Cl)c6)C5(C)C)cn4)CC3)c2)c2cc[nH]c2c1=O` [Compound I-56, N-((1r, 3r)-3-(3-chloro-4-cyanophenoxy)-2,2,4,4-tetramethylcyclobutyl)-2-(4-(2-(3-(4-(2-hydroxypropan-2-yl)-2-(6-methyl-7-oxo-6,7-dihydro-1H-pyrrolo[2,3-c]pyridin-4-yl)phenoxy)phenoxy)ethoxy)piperidin-1-yl)pyrimidine-5-carboxamide], the GI50 (in test [1]; with VCaP cells (Homo sapiens); in test [2]) was less than 500 nM in each case. This compound also showed a pKd at BRD4-BD2 of 6.30 to 7.30.
As for `Cn1cc(-c2cc(C(C)(C)O)ccc2Oc2cccc(CCCN3CCN(c4ncc(C(=O)N[C@H]5C(C)(C)[C@H](Oc6ccc(C#N)c(Cl)c6)C5(C)C)cn4)CC3)c2)c2cc[nH]c2c1=O` [Compound I-110], the concentration for 50% growth inhibition (GI50) (in test [1]; with VCaP cells (Homo sapiens); in test [2]) was less than 500 nM each time. This compound had a pKd at BRD4-BD2 of more than 7.30.
Consider `CC(C)c1ccc(Oc2cccc(OCCN3CCN(c4ncc(C(=O)NC5C(C)(C)C(Oc6ccc(C#N)c(Cl)c6)C5(C)C)cn4)CC3)c2)c(-c2cn(C)c(=O)c3[nH]ccc23)c1` (centres unmarked) [Compound I-107, N-[3-(3-chloro-4-cyano-phenoxy)-2,2,4,4-tetramethyl-cyclobutyl]-2-[4-[2-[3-[4-isopropyl-2-(6-methyl-7-oxo-1H-pyrrolo[2,3-c]pyridin-4-yl)phenoxy]phenoxy]ethyl]piperazin-1-yl]pyrimidine-5-carboxamide], for which the 50% growth inhibitory concentration (GI50) in test [1] is less than 500 nM; with VCaP cells (Homo sapiens), more than 3000 nM; in test [2], more than 3000 nM. For the same compound, the pKd on BRD4-BD2 was 6.30 to 7.30.
In the case of `CCS(=O)(=O)Nc1ccc(Oc2cccc(OCCOCCOCCOC3CCN(c4ncc(C(=O)N[C@H]5C(C)(C)[C@H](Oc6ccc(C#N)c(Cl)c6)C5(C)C)cn4)CC3)c2)c(-c2cn(C)c(=O)c3[nH]ccc23)c1` [Compound I-7], the GI50 (in test [1]; in the test on VCaP cells (Homo sapiens); in test [2]) was less than 500 nM in each case. For the same compound, at BRD4-BD2, the pKd was more than 7.30.
Regarding `CN(c1ccc(Oc2cccc(N3CC(N4CCN(c5ncc(C(=O)N[C@H]6C(C)(C)[C@H](Oc7ccc(C#N)c(Cl)c7)C6(C)C)cn5)CC4)C3)c2)c(-c2cn(C)c(=O)c3[nH]ccc23)c1)S(=O)(=O)C1CC1` [Compound I-88, N-((1r, 3r)-3-(3-chloro-4-cyanophenoxy)-2,2,4,4-tetramethylcyclobutyl)-2-(4-(1-(3-(2-(6-methyl-7-oxo-6,7-dihydro-1H-pyrrolo[2,3-c]pyridin-4-yl)-4-(N-methylcyclopropanesulfonamido)phenoxy)phenyl)azetidin-3-yl)piperazin-1-yl)pyrimidine-5-carboxamide], the results for the GI50 (in test [1]; in the test on VCaP cells (Homo sapiens); in test [2]) were less than 500 nM, less than 500 nM and more than 3000 nM, respectively. The negative logarithm of the Kd (pKd) on BRD4-BD2 is 6.30 to 7.30.
For the compound `CCS(=O)(=O)Nc1ccc(Oc2cccc(N3CC(OC4CCN(c5ncc(C(=O)N[C@H]6C(C)(C)[C@H](Oc7ccc(C#N)c(Cl)c7)C6(C)C)cn5)CC4)C3)c2)c(-c2cn(C)c(=O)c3[nH]ccc23)c1` [Compound I-80], the GI50 (in test [1]; in the test with VCaP cells (Homo sapiens); in test [2]) was less than 500 nM in each case. For the same compound, at BRD4-BD2, the pKd is 6.30 to 7.30.
With `Cn1cc(-c2ccccc2Oc2cccc(OCCN3CCN(c4ncc(C(=O)N[C@H]5C(C)(C)[C@H](Oc6ccc(C#N)c(Cl)c6)C5(C)C)cn4)CC3)c2)c2cc[nH]c2c1=O` [Compound I-98], the concentration for 50% growth inhibition (GI50) in test [1] was less than 500 nM; in the test with VCaP cells (Homo sapiens), less than 500 nM; in test [2], 500 to 1500 nM. The pKd at BRD4-BD2 is less than 5.60.
With `CCS(=O)(=O)Nc1ccc(Oc2cccc(OCCOCCOCCOCCOCCN(C)c3ncc(C(=O)N[C@H]4C(C)(C)[C@H](Oc5ccc(C#N)c(Cl)c5)C4(C)C)cn3)c2)c(-c2cn(C)c(=O)c3[nH]ccc23)c1` [Compound I-3], the 50% growth inhibitory concentration (GI50) was less than 500 nM in test [1], less than 500 nM in the test on VCaP cells (Homo sapiens) and more than 3000 nM in test [2]. At BRD4-BD2, the negative logarithm of the Kd (pKd) is more than 7.30.
Consider `Cn1cc(-c2ccccc2Oc2cccc(N3CC(N4CCN(c5ncc(C(=O)N[C@H]6C(C)(C)[C@H](Oc7ccc(C#N)c(Cl)c7)C6(C)C)cn5)CC4)C3)c2F)c2cc[nH]c2c1=O` [Compound I-94], for which the figures for the GI50 (in test [1]; with VCaP cells (Homo sapiens); in test [2]) were less than 500 nM, more than 3000 nM and more than 3000 nM, respectively. For the same compound, the pKd at BRD4-BD2 is 6.30 to 7.30.
As for `CCS(=O)(=O)Nc1ccc(Oc2ccc(F)c(OCCOC3CCN(c4ncc(C(=O)N[C@H]5C(C)(C)[C@H](Oc6ccc(C#N)c(Cl)c6)C5(C)C)cn4)CC3)c2F)c(-c2cn(C)c(=O)c3[nH]ccc23)c1` [Compound I-65], the GI50 (in test [1]; in the test on VCaP cells (Homo sapiens); in test [2]) was less than 500 nM each time. This compound showed a pKd on BRD4-BD2 of more than 7.30.
As to `Cn1cc(-c2ccccc2Oc2cccc(OCCOC3CCN(c4ncc(C(=O)N[C@H]5C(C)(C)[C@H](Oc6ccc(C#N)c(Cl)c6)C5(C)C)cn4)CC3)c2)c2cc[nH]c2c1=O` [Compound I-61, N-((1r, 3r)-3-(3-chloro-4-cyanophenoxy)-2,2,4,4-tetramethylcyclobutyl)-2-(4-(2-(3-(2-(6-methyl-7-oxo-6,7-dihydro-1H-pyrrolo[2,3-c]pyridin-4-yl)phenoxy)phenoxy)ethoxy)piperidin-1-yl)pyrimidine-5-carboxamide], the concentration for 50% growth inhibition (GI50) was less than 500 nM in test [1], less than 500 nM in the test on VCaP cells (Homo sapiens) and 1500 to 3000 nM in test [2]. At BRD4-BD2, the pKd is less than 5.60.
As for `CCS(=O)(=O)Nc1ccc(Oc2cccc(OCCOC3CCN(c4ncc(C(=O)N[C@H]5C(C)(C)[C@H](Oc6ccc(C#N)c(Cl)c6)C5(C)C)cn4)CC3)c2)c(-c2cn(C)c(=O)c3[nH]ccc23)c1` [Compound I-6], the GI50 (in test [1]; in the test on VCaP cells (Homo sapiens); in test [2]) was less than 500 nM throughout. The pKd on BRD4-BD2 is 6.30 to 7.30.
With `CN(c1ccc(Oc2cccc(N3CC(N4CCN(c5ncc(C(=O)N[C@H]6C(C)(C)[C@H](Oc7ccc(C#N)c(Cl)c7)C6(C)C)cn5)CC4)C3)c2F)c(-c2cn(C)c(=O)c3[nH]ccc23)c1)S(=O)(=O)C1CC1` [Compound I-91], the GI50 in test [1] was less than 500 nM; with VCaP cells (Homo sapiens), less than 500 nM; in test [2], more than 3000 nM. This compound also showed a pKd on BRD4-BD2 of more than 7.30.
For the compound `CCS(=O)(=O)Cc1ccc(Oc2cccc(OCCOC3CCN(c4ncc(C(=O)N[C@H]5C(C)(C)[C@H](Oc6ccc(C#N)c(Cl)c6)C5(C)C)cn4)CC3)c2)c(-c2cn(C)c(=O)c3[nH]ccc23)c1` [Compound I-54, N-((1r, 3r)-3-(3-chloro-4-cyanophenoxy)-2,2,4,4-tetramethylcyclobutyl)-2-(4-(2-(3-(4-((ethylsulfonyl)methyl)-2-(6-methyl-7-oxo-6,7-dihydro-1H-pyrrolo[2,3-c]pyridin-4-yl)phenoxy)phenoxy)ethoxy)piperidin-1-yl)pyrimidine-5-carboxamide], the GI50 (in test [1]; in the test with VCaP cells (Homo sapiens); in test [2]) was less than 500 nM in each case. The compound further had a pKd at BRD4-BD2 of 6.30 to 7.30.
As to `Cc1ccc(CCCOC2CCN(c3ncc(C(=O)N[C@H]4C(C)(C)[C@H](Oc5ccc(C#N)c(Cl)c5)C4(C)C)cn3)CC2)c(C)c1Oc1ccc(C(C)(C)O)cc1-c1cn(C)c(=O)c2[nH]ccc12` [Compound I-195], the GI50 in test [1] is less than 500 nM; in the test on VCaP cells (Homo sapiens), more than 3000 nM; in test [2] it was more than 3000 nM. This compound also gave a pKd at BRD4-BD2 of less than 5.60.
Take `CCS(=O)(=O)Nc1ccc(Oc2cccc(N(C)C3CN(CC4CCN(c5ncc(C(=O)NC6C(C)(C)C(Oc7ccc(C#N)c(Cl)c7)C6(C)C)cn5)CC4)C3)c2)c(-c2cn(C)c(=O)c3[nH]ccc23)c1` (centres unmarked) [Compound I-39]: the GI50 (in test [1]; with VCaP cells (Homo sapiens); in test [2]) was less than 500 nM in each case. Further, on BRD4-BD2, the pKd was more than 7.30.
Regarding `Cn1cc(-c2cc(C(C)(C)O)ccc2Oc2cccc(N3CC(N4CCN(c5ncc(C(=O)N[C@H]6C(C)(C)[C@H](Oc7ccc(C#N)c(Cl)c7)C6(C)C)cn5)CC4)C3)c2)c2cc[nH]c2c1=O` [Compound I-105], the GI50 (in test [1]; in the test with VCaP cells (Homo sapiens); in test [2]) was less than 500 nM in each case. Also, the pKd at BRD4-BD2 was more than 7.30.
As for `CCS(=O)(=O)Nc1ccc(Oc2cccc(OCCOCCOC3CCN(c4ncc(C(=O)N[C@H]5C(C)(C)[C@H](Oc6ccc(C#N)c(Cl)c6)C5(C)C)cn4)CC3)c2)c(-c2cn(C)c(=O)c3[nH]ccc23)c1` [Compound I-13], the concentration for 50% growth inhibition (GI50) (in test [1]; in the test on VCaP cells (Homo sapiens); in test [2]) was less than 500 nM each time. This compound gave a pKd at BRD4-BD2 of more than 7.30.
